Drawing on ChEMBL document CHEMBL3991601, “The target landscape of clinical kinase drugs” (Science, 2017), this text covers Kd for 18 compounds.

Assay [1] concerns the target T1, Very long-chain specific acyl-CoA dehydrogenase, mitochondrial (Homo sapiens, UniProt P49748).
T1 sequence (P49748 whole entry): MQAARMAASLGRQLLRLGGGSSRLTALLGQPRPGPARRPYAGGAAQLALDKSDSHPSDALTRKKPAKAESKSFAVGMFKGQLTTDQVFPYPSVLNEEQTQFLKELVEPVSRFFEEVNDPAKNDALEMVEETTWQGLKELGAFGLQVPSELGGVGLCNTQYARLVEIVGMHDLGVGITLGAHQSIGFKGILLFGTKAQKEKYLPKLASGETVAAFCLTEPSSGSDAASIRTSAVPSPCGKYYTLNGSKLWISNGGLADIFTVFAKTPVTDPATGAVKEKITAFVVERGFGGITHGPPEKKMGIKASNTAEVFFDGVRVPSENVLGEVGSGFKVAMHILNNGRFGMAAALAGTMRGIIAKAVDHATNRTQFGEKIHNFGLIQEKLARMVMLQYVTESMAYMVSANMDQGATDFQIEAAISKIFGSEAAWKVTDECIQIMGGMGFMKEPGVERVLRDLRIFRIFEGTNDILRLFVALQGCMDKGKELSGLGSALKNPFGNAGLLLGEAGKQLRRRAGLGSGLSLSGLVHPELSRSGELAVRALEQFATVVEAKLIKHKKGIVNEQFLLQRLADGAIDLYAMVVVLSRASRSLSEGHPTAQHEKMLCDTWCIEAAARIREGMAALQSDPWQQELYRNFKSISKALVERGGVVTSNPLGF

The target of the next assay is T2, Ephrin type-A receptor 1 (Homo sapiens, UniProt P21709).
T2 sequence (P21709 whole entry): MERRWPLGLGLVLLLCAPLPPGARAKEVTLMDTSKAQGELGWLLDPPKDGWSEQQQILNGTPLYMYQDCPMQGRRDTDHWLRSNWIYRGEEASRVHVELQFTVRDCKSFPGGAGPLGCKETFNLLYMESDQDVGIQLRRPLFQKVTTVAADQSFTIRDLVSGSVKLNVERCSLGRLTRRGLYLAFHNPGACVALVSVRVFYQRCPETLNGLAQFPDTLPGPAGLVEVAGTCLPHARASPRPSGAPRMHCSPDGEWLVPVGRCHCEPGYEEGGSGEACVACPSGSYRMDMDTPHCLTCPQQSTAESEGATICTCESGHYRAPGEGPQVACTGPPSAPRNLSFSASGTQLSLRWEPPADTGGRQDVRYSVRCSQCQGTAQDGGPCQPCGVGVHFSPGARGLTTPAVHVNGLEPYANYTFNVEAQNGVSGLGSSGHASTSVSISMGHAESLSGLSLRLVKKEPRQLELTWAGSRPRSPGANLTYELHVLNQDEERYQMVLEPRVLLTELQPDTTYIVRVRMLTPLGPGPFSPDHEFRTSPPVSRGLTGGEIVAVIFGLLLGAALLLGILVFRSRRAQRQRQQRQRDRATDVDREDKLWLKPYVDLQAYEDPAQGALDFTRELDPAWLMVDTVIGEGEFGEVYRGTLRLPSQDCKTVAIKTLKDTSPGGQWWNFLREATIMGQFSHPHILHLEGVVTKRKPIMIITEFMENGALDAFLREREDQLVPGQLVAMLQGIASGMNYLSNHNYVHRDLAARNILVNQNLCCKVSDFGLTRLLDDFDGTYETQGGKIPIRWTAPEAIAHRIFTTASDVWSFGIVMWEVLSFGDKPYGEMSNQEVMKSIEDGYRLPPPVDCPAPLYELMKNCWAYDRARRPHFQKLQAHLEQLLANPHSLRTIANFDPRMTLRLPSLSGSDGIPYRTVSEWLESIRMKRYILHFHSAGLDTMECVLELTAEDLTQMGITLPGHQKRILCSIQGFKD

A further assay deals with LIM domain kinase 1 (Homo sapiens, UniProt P53667).
Assay [2] concerns the target Protein kinase C beta type (Homo sapiens, UniProt P05771).
Assay [3] addresses T3, Serine/threonine-protein kinase TBK1 (Homo sapiens, UniProt Q9UHD2).
T3 sequence (Q9UHD2 whole entry): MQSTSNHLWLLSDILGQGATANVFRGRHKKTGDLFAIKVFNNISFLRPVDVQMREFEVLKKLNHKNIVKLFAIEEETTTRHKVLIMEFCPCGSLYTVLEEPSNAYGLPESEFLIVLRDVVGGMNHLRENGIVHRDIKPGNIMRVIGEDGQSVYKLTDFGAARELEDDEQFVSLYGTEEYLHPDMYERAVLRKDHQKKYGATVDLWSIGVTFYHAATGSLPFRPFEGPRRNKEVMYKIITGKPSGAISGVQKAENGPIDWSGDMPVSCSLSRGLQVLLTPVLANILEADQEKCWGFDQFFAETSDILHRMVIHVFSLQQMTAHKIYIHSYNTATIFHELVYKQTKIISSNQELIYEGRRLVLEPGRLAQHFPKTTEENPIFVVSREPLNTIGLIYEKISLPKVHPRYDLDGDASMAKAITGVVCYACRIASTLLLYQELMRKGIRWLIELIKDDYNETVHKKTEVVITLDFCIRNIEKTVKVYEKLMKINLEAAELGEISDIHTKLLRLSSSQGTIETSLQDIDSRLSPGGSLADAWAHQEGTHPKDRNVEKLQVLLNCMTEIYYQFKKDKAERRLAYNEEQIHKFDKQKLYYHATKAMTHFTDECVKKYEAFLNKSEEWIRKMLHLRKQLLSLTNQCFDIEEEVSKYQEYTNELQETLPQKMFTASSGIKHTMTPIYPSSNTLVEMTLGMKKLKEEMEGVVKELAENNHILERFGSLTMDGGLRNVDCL

Activity calls are given as the source filed them. For most assays here, no stated cut-off is given here; in the data, actives have a measured Kd and inactives only a lower limit. Bounds are passed on as bounds.

Sequence of Protein kinase C beta type (P05771 whole entry): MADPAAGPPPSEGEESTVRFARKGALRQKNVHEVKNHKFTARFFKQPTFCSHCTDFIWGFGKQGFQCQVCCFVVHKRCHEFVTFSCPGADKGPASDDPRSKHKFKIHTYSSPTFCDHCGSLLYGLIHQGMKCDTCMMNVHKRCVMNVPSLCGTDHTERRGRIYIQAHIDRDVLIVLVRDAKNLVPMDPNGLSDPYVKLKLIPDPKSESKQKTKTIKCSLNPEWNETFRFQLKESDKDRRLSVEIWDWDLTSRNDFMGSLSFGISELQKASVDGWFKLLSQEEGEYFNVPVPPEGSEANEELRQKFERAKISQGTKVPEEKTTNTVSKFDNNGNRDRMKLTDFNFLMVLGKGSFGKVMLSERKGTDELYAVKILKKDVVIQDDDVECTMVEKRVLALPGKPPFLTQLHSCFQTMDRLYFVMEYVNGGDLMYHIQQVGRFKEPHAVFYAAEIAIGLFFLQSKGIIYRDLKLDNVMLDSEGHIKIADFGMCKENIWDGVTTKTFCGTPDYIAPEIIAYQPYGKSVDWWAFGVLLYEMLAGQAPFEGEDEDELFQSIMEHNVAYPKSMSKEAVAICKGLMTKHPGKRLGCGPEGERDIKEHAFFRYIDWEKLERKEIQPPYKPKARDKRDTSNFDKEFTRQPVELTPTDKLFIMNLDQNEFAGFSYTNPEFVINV
Sequence of LIM domain kinase 1 (P53667 whole entry, the tested form may be a part): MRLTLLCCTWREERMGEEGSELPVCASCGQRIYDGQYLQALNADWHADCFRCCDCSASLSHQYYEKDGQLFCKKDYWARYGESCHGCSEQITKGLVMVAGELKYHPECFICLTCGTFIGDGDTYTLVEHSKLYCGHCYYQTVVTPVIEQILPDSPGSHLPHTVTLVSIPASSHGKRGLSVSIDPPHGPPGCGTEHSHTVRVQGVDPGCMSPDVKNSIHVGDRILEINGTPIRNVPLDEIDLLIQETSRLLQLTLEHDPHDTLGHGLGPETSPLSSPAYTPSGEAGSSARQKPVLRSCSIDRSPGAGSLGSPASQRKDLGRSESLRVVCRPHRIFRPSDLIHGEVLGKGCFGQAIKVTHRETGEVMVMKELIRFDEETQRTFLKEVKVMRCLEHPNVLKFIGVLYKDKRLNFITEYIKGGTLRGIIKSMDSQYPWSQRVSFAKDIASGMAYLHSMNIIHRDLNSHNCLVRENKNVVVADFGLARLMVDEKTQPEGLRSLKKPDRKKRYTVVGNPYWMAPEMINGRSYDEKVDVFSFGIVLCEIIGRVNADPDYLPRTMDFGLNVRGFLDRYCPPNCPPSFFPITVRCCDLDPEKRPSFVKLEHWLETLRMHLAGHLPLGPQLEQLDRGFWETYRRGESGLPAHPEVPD

The term Kd denotes a measure of binding affinity in units of concentration. On to `CNC(=O)c1cccc2cc(Oc3ccnc4cc(OCC5(N)CC5)c(OC)cc34)ccc12` [LUCITANIB], for which the Kd (in assay [1]; at Ephrin type-A receptor 1; on LIM domain kinase 1; in assay [2]; in assay [3]) was > 30 µM (inactive) each time.

On to `CNC(=O)c1nn(C)c2c1C(C)(C)Cc1cnc(Nc3ccc(N4CCN(C)CC4)cc3)nc1-2` [MILCICLIB], for which the Kd in assay [1] was > 30 µM (inactive); on Ephrin type-A receptor 1, > 30 µM (inactive); at LIM domain kinase 1, > 30 µM (inactive); in assay [2], > 30 µM (inactive); in assay [3], 2.09 µM (active).

Regarding `NC1(c2ccc(-c3nc4ccn5c(=O)[nH]nc5c4cc3-c3ccccc3)cc2)CCC1` [MK-2206], the Kd (in assay [1]; on Ephrin type-A receptor 1; on LIM domain kinase 1; in assay [2]; in assay [3]) was > 30 µM (inactive) each time.

As for `CN(C[C@@H]1COCCO1)S(=O)(=O)Nc1ccc2ccc3ncc(-c4cnn(C)c4)cc3c(=O)c2c1` [MK-2461], the Kd (in assay [1]; at Ephrin type-A receptor 1; on LIM domain kinase 1; in assay [2]; in assay [3]) was > 30 µM (inactive) in each case.

Turning to `Cn1cc(-c2cnc3ccc4ccc(CS(=O)(=O)NCc5ccccn5)cc4c(=O)c3c2)cn1` [MK-8033], the Kd (in assay [1]; on Ephrin type-A receptor 1; at LIM domain kinase 1; in assay [2]; in assay [3]) was > 30 µM (inactive) each time.

`FC(F)(F)c1ccc(/C=C/c2nc(COc3ccc(CCCCn4ccnn4)cc3)co2)cc1` [MUBRITINIB]: the Kd (in assay [1]; on Ephrin type-A receptor 1; at LIM domain kinase 1; in assay [2]; in assay [3]) was > 30 µM (inactive) in each case.

Regarding `CCOc1cc2ncc(C#N)c(Nc3ccc(F)c(Cl)c3)c2cc1NC(=O)/C=C/CN(C)C` [PELITINIB], the Kd (in assay [1]; at Ephrin type-A receptor 1; on LIM domain kinase 1; in assay [2]; in assay [3]) was > 30 µM (inactive) in each case.

Take `CCCCCCCCCCCCCCCCCCOP(=O)([O-])OC1CC[N+](C)(C)CC1` [PERIFOSINE]: the Kd (in assay [1]; on Ephrin type-A receptor 1; at LIM domain kinase 1; in assay [2]; in assay [3]) was > 30 µM (inactive) each time.

On to `Cc1cnc(NC(=O)Nc2cc(Br)c(C)cc2OC[C@@H]2CNCCO2)cn1` [RABUSERTIB], for which the Kd (in assay [1]; at Ephrin type-A receptor 1; on LIM domain kinase 1; in assay [2]; in assay [3]) was > 30 µM (inactive) throughout.

Consider `CO[C@H]1C[C@@H]2CC[C@@H](C)[C@@](O)(O2)C(=O)C(=O)N2CCCC[C@H]2C(=O)O[C@H]([C@H](C)C[C@@H]2CC[C@@H](OP(C)(C)=O)[C@H](OC)C2)CC(=O)[C@H](C)/C=C(\C)[C@@H](O)[C@@H](OC)C(=O)[C@H](C)C[C@H](C)/C=C/C=C/C=C/1C` [RIDAFOROLIMUS], for which the Kd (in assay [1]; at Ephrin type-A receptor 1; on LIM domain kinase 1; in assay [2]; in assay [3]) was > 30 µM (inactive) in each case.

As for `N#CC1(c2ccc(NC(=O)c3cccnc3NCc3ccncc3)cc2)CCCC1` [RIVOCERANIB], the Kd (in assay [1]; on Ephrin type-A receptor 1; at LIM domain kinase 1; in assay [2]; in assay [3]) was > 30 µM (inactive) each time.

As to `O=c1[nH]ccc2cc(OC3CCNCC3)ccc12` [SAR-407899 FREE BASE], the Kd (in assay [1]; at Ephrin type-A receptor 1; at LIM domain kinase 1; in assay [2]; in assay [3]) was > 30 µM (inactive) each time.

Turning to `Cn1cc(-c2cnn3c(N)c(Br)c([C@@H]4CCCNC4)nc23)cn1` [SCH-900776], the Kd (in assay [1]; at Ephrin type-A receptor 1; at LIM domain kinase 1; in assay [2]; in assay [3]) was > 30 µM (inactive) throughout.

With `CO[C@H]1C[C@@H]2CC[C@@H](C)[C@@](O)(O2)C(=O)C(=O)N2CCCC[C@H]2C(=O)O[C@H]([C@H](C)C[C@@H]2CC[C@@H](O)[C@H](OC)C2)CC(=O)[C@H](C)/C=C(\C)[C@@H](O)[C@@H](OC)C(=O)[C@H](C)C[C@H](C)/C=C/C=C/C=C/1C` [SIROLIMUS], the Kd (in assay [1]; at Ephrin type-A receptor 1; at LIM domain kinase 1; in assay [2]; in assay [3]) was > 30 µM (inactive) each time.

In the case of `CCS(=O)(=O)c1cccc(-c2cc(C(=O)NC3CCN(C)CC3)c(C)c3[nH]c4ncc(C)cc4c23)c1` [TAK-901], the Kd in assay [1] is > 30 µM (inactive); at Ephrin type-A receptor 1 it was > 30 µM (inactive); on LIM domain kinase 1, > 30 µM (inactive); in assay [2], > 30 µM (inactive); in assay [3], 2.76 µM (active).

For the compound `CO[C@H]1C[C@@H]2CC[C@@H](C)[C@@](O)(O2)C(=O)C(=O)N2CCCC[C@H]2C(=O)O[C@H]([C@H](C)C[C@@H]2CC[C@@H](OC(=O)C(C)(CO)CO)[C@H](OC)C2)CC(=O)[C@H](C)/C=C(\C)[C@@H](O)[C@@H](OC)C(=O)[C@H](C)C[C@H](C)/C=C/C=C/C=C/1C` [TEMSIROLIMUS], the Kd (in assay [1]; at Ephrin type-A receptor 1; at LIM domain kinase 1; in assay [2]; in assay [3]) was > 30 µM (inactive) throughout.

With `COc1cc2c(Nc3ccc(Cl)c(Cl)c3F)ncnc2cc1OC[C@@H]1C[C@@H]2CN(C)C[C@@H]2C1` [TESEVATINIB], the Kd in assay [1] is > 30 µM (inactive); at Ephrin type-A receptor 1, 0.008 µM (active); at LIM domain kinase 1 it was > 30 µM (inactive); in assay [2] it was > 30 µM (inactive); in assay [3] it was > 30 µM (inactive).

For `O=C(Cc1ccc(-c2ccc(OCCN3CCOCC3)cc2)cn1)NCc1ccccc1` [TIRBANIBULIN], the Kd (in assay [1]; on Ephrin type-A receptor 1; on LIM domain kinase 1; in assay [2]; in assay [3]) was > 30 µM (inactive) throughout.
